Reference: patent US7635572B2, “Methods for conducting assays for enzyme activity on protein microarrays” (Life Technologies Corporation, priority 2004, dated 2009)

How the values were obtained:
Assay in all cases: Further analysis of a plurality of inhibitors and a plurality of kinases on microarray (Example IX, Table 5);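 note: inhibition of each kinase by the inhibitors is given as a qualitative level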;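 for Inhibition level, FGFR2: level 0 none or unclear then 1 little or marginal then 2 substantial inhibition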;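 for Inhibition level, STK13: level 0 no or unclear inhibition to Level 2 substantial inhibition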;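 for Inhibition level, STK4: level 0 no or unclear inhibition to Level 2 substantial inhibition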;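 for Inhibition level, TLK2: level 0 none or unclear Level 1 marginal Level 2 substantial inhibition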
Type in all cases: biochemical
[1] = target: T1, plurality of kinases (Table 5) (Homo sapiens, UniProt P54753); details: plate B5
T1 sequence (P54753 34-998): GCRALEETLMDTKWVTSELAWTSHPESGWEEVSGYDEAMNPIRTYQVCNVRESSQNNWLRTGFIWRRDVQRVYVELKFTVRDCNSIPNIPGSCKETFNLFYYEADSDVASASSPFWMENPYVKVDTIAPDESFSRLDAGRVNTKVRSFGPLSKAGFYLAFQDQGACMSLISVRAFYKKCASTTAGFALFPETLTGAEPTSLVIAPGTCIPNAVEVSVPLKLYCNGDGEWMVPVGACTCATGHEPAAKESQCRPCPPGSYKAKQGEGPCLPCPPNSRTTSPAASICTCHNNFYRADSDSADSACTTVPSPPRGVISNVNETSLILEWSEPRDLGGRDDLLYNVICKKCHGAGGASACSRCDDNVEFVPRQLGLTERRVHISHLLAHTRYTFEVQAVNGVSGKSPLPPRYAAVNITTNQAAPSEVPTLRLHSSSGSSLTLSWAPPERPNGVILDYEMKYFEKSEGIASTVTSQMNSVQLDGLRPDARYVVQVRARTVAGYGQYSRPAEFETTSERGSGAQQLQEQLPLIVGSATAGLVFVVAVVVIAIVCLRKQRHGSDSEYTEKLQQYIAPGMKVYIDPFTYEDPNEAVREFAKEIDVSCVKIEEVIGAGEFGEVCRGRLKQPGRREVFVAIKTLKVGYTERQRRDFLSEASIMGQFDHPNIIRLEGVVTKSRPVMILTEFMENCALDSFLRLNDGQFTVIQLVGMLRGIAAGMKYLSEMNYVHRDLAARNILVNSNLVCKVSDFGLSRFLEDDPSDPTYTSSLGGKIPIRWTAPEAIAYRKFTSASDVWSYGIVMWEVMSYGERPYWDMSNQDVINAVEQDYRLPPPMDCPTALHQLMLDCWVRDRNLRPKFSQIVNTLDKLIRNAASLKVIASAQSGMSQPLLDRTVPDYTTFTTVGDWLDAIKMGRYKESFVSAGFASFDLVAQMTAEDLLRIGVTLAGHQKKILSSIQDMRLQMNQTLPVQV

[2] = target: plurality of kinases (Table 5) (Homo sapiens, UniProt Q86UE8); details: plate C8
[3] = target: plurality of kinases (Table 5) (Homo sapiens, UniProt P11362); details: plate D12; inhibitor 100 uM
[4] = target: T2, plurality of kinases (Table 5) (Homo sapiens, UniProt Q96KB5); details: plate G7
T2 sequence (Q96KB5 1-322): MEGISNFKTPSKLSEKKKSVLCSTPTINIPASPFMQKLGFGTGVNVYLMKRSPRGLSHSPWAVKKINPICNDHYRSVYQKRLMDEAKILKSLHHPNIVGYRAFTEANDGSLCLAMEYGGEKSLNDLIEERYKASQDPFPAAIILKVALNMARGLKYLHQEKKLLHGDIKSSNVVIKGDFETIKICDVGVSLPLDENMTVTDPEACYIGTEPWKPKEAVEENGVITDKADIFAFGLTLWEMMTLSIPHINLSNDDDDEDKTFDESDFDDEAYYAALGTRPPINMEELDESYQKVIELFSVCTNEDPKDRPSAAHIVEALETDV

[5] = target: T3, plurality of kinases (Table 5) (Homo sapiens, UniProt Q9UQB9); details: plate G11; inhibitor 100 uM
T3 sequence (Q9UQB9 1-309): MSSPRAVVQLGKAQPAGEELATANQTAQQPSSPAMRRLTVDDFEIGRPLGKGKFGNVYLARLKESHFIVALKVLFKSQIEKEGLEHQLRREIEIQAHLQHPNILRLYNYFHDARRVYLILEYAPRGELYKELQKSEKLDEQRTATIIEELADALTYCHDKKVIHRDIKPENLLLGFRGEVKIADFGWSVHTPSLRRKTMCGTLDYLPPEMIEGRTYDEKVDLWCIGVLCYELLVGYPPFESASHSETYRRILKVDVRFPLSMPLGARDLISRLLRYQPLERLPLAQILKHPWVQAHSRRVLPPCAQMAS

[6] = target: plurality of kinases (Table 5) (Homo sapiens, UniProt P16591); details: plate H5; inhibitor 100 uM
[7] = target: plurality of kinases (Table 5) (Homo sapiens, UniProt P21802)
[8] = target: T4, plurality of kinases (Table 5) (Homo sapiens, UniProt Q13043); details: plate D6
T4 sequence (Q13043 1-487): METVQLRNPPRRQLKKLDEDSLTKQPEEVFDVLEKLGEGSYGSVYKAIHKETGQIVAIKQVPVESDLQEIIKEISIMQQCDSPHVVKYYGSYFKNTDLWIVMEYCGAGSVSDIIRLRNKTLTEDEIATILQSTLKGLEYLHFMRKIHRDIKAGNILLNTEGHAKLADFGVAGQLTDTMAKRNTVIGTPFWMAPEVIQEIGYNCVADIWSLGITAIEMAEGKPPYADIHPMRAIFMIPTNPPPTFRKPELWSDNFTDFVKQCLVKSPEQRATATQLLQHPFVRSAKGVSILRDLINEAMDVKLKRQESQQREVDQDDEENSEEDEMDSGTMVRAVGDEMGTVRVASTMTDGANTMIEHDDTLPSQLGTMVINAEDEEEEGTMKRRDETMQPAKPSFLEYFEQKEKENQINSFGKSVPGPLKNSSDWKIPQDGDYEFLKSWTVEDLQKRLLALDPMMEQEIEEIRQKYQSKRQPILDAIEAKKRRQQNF

plurality of kinases (Table 5) (Homo sapiens, UniProt P21802), sequence (P21802 22-821): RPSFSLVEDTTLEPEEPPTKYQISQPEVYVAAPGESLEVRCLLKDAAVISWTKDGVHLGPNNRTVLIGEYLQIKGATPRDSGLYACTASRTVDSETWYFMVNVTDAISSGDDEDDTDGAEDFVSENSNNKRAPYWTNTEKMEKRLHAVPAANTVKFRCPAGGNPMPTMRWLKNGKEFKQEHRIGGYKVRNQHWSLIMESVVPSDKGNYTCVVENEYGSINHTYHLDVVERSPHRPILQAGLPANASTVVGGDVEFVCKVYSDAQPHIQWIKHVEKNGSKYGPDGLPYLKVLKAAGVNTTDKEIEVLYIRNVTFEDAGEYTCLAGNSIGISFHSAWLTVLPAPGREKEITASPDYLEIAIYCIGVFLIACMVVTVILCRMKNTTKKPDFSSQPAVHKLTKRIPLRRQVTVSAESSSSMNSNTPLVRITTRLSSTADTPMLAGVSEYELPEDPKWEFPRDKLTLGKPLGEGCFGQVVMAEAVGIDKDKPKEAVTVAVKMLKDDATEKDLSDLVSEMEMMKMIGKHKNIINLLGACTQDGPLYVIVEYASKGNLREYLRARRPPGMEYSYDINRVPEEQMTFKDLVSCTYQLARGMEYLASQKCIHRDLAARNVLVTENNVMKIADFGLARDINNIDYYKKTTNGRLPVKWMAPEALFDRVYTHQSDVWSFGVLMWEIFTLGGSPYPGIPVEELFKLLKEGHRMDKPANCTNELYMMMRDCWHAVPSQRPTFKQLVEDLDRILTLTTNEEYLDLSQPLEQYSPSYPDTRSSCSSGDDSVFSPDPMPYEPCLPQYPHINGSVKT
plurality of kinases (Table 5) (Homo sapiens, UniProt P16591), sequence (P16591 whole entry): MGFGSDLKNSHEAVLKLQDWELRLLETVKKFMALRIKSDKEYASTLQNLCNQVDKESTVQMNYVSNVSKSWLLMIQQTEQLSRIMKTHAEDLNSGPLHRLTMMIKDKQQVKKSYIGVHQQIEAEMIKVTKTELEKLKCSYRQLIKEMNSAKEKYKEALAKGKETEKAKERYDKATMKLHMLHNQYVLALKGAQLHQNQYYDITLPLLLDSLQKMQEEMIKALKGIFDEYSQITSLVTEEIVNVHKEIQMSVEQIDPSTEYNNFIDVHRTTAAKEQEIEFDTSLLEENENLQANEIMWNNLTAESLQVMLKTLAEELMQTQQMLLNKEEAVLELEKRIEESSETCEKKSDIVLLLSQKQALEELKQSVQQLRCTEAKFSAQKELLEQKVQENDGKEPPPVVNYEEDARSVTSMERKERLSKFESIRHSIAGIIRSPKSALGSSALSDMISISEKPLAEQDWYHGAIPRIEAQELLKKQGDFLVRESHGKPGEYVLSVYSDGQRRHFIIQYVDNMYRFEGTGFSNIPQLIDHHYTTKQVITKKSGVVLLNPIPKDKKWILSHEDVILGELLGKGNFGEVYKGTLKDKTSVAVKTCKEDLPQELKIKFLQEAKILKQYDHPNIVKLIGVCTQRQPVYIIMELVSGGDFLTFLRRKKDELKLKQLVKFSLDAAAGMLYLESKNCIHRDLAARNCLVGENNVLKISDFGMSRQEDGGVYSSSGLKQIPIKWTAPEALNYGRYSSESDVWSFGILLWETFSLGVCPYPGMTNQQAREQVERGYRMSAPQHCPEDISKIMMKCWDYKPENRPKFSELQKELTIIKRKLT
plurality of kinases (Table 5) (Homo sapiens, UniProt P11362), sequence (P11362 22-822): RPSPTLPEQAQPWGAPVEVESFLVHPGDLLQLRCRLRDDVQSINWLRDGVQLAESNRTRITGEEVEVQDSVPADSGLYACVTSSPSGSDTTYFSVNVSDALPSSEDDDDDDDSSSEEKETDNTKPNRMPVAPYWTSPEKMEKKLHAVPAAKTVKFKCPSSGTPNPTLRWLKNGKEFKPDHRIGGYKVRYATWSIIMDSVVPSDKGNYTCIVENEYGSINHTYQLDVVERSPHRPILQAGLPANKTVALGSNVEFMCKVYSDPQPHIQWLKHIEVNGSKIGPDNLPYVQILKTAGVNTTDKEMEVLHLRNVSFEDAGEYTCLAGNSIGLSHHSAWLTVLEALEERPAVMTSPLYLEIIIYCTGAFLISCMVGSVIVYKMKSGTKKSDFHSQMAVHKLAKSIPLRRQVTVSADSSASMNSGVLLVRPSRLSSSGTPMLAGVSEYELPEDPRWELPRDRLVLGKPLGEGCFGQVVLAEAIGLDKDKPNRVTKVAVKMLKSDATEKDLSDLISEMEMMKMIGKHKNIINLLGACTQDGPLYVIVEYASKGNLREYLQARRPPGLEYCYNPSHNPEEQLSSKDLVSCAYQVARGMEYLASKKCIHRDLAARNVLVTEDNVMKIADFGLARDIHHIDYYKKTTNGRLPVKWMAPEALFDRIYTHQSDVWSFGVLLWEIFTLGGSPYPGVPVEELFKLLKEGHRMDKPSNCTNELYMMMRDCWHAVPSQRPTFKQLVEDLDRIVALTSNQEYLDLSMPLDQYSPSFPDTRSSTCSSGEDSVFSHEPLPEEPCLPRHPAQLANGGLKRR
plurality of kinases (Table 5) (Homo sapiens, UniProt Q86UE8), sequence (Q86UE8 whole entry): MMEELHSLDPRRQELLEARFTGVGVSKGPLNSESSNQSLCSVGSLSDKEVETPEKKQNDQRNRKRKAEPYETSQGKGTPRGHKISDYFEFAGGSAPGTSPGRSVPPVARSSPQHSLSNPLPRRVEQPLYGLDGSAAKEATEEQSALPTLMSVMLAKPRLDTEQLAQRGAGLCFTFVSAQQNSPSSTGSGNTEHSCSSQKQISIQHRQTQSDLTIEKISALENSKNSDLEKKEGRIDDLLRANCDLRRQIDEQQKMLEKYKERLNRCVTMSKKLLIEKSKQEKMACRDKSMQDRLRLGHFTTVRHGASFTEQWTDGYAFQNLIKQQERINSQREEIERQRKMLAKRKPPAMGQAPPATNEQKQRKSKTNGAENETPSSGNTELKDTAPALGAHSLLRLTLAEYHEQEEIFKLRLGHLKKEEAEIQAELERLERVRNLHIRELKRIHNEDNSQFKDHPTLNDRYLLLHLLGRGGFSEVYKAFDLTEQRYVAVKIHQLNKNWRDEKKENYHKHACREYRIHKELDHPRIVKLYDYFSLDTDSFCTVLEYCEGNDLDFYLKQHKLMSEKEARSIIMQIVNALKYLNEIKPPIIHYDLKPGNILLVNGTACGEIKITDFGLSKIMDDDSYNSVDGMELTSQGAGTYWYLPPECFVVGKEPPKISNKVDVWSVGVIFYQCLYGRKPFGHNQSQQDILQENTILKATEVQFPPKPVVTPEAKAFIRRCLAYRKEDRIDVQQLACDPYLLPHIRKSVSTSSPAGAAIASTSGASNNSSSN

| Structure (SMILES) | Inhibition level, EPHB3 ([1]; inhibitor 100 uM) | Inhibition level, TLK2 ([2]; inhibitor 100 uM) | Inhibition level, FGFR1 [3] | Inhibition level, TOPK ([4]; inhibitor 100 uM) | Inhibition level, STK13 [5] | Inhibition level, FER [6] | Inhibition level, FGFR2 ([7]; plate B4, inhibitor 100 uM) | Inhibition level, FGFR2 ([7]; plate G8, inhibitor 100 uM) | Inhibition level, STK4 ([8]; inhibitor 100 uM) | other results |
| --- | --- | --- | --- | --- | --- | --- | --- | --- | --- | --- |
| N#C/C(=C/c1ccc(O)c(O)c1)C(=O)NCc1ccccc1 [AG 490] | 2 | 2 | 0 | 2 | 2 | 2 | 2 | 2 | 0 | – |
| COc1cc2ncnc(Nc3cccc(Cl)c3)c2cc1OC [AG 1478] | 2 | 2 | 1 | 1 | 1 | 1 | 2 | 2 | 1 | – |
| O=c1c(-c2ccc(O)cc2)coc2cc(O)cc(O)c12 [Genistein] | 2 | 2 | 0 | 2 | 2 | 2 | 2 | 2 | 0 | Inhibition level, EPHB3 ([1]; Genistein, conc. not given): 0; Inhibition level, TLK2 ([2]; Genistein <3.7 mM): 0; Inhibition level, TOPK ([4]; Genistein <3.7 mM): 0; Inhibition level, FGFR2 ([7]; plate B4, Genistein, conc. not given): 1; Inhibition level, FGFR2 ([7]; plate G8, Genistein <3.7 mM): 0; Inhibition level, STK4 ([8]; Genistein, conc. not given): 0 |
| O=S(=O)(NCCNC/C=C/c1ccc(Br)cc1)c1cccc2cnccc12 [H-89] | 1 | 2 | 1 | 2 | 1 | 2 | 2 | 2 | 2 | – |
| CC(C)(C)n1nc(-c2ccc(Cl)cc2)c2c(N)ncnc21 [PP2] | 2 | 2 | 2 | 2 | 2 | 2 | 2 | 2 | 2 | – |
| O=c1c(O)c(-c2ccc(O)c(O)c2)oc2cc(O)cc(O)c12 [Quercetin] | 2 | 0 | – | 0 | 2 | 1 | 0 | 0 | 0 | – |
| Cn1cc(C2=C(c3cn(CCCSC(=N)N)c4ccccc34)C(=O)NC2=O)c2ccccc21 [Ro-31-8220] | 2 | 1 | 2 | 0 | 2 | 2 | 2 | 2 | 2 | Inhibition level, EPHB3 ([1]; Ro-31-8220, conc. not given): 0; Inhibition level, TLK2 ([2]; Ro-31-8220 90 uM): 2; Inhibition level, TOPK ([4]; Ro-31-8220 90 uM): 2; Inhibition level, FGFR2 ([7]; plate B4, Ro-31-8220, conc. not given): 0; Inhibition level, FGFR2 ([7]; plate G8, Ro-31-8220 90 uM): 2; Inhibition level, STK4 ([8]; Ro-31-8220, conc. not given): 0 |
| CC(=O)c1c(O)c(C)c(O)c(Cc2c(O)c3c(c(C(=O)/C=C/c4ccccc4)c2O)OC(C)(C)C=C3)c1O [Rottlerin (Mallotoxin)] | 2 | 2 | 1 | 2 | 1 | 2 | 0 | 2 | 0 | – |
| CN[C@@H]1C[C@H]2O[C@@](C)([C@@H]1OC)n1c3ccccc3c3c4c(c5c6ccccc6n2c5c31)C(=O)NC4 [Staurosporine] | – | – | – | – | – | – | – | – | – | Inhibition level, EPHB3 ([1]; Staurosporine, conc. not given): 0; Inhibition level, TLK2 ([2]; Staurosporine 21.5 uM): 2; Inhibition level, TOPK ([4]; Staurosporine 21.5 uM): 2; Inhibition level, STK4 ([8]; Staurosporine, conc. not given): 0 |
